Experimental data reported in article PMC6539005, “Half-Wave Potentials and In Vitro Cytotoxic Evaluation of 3-Acylated 2,5-Bis(phenylamino)-1,4-benzoquinones on Cancer Cells” (Molecules, 2019).
Read-outs that look alike come from different tables or passages of the source.

Key:
T24 (bladder) cells = assay: MTT cytotoxicity assay, T24; type: cell-based, human; conditions: 48 h incubation (b12: 72 h), n = 3, read-out: IC50 ± SEM T24
Procedure: (§1) The 3-acyl-2,5-bis(phenylamino)-1,4-benzoquinones 2a–q were evaluated for their in vitro cytotoxic activities against normal human embryonic kidney cells (HEK-293 cells) and two human cancer cell lines (T24 and DU-145 cells) in 72 h drug exposure assays. The cytotoxic activities of the new compounds were measured using conventional microculture tetrazolium reduction assays. The cytotoxic activities are expressed in terms of IC50. Doxorubicin, a clinically used anti-cancer agent, was taken as a positive control.
(§2) Human cancer cell lines T24 (bladder) and DU-145 (prostate), and non-tumor HEK-293 cells were obtained from the American Type Culture Collection (ATCC, Manassas, VA, USA). The cultures were maintained at a density of 1× 10^5 cells/mL and the medium was changed at 48- to 72-h intervals. They were cultured in high-glucose Dulbecco’s modified Eagle medium (Gibco, Grand Island, NY, USA) supplemented with 10% fetal calf serum, penicillin (100 U/mL), and streptomycin (100 μg/mL). All cultures were kept at 37 °C in 95% air/5% CO2 at 100% humidity. Phosphate-buffered saline (PBS) was purchased from Gibco. Cells were incubated at the indicated times at 37 °C, with or without quinones at various concentrations.
(§3) The cytotoxicity of the quinones was assessed by following the reduction of MTT (3-(4,5-Dimethylthiazol-2-yl)-2,5-diphenyltetrazolium bromide) to formazan blue. Cells were seeded into 96-well plates at a density of 10,000 cells/well for 24 h and then incubated for 48 h, with or without the quinone derivatives. Doxorubicin was used as the standard chemotherapeutic agent (positive control). Cells were then washed twice with warm PBS and incubated with MTT (0.5 mg/mL) for 2 hours at 37 °C. Blue formazan crystals were solubilized by adding 100 µL DMSO/well, and the optical density of the coloured solutions was subsequently read at 550 nm. Results are expressed as percentage of MTT reduction, compared to untreated control conditions. The IC50 values were calculated using the GraphPad Prism software (San Diego, CA, USA).

DU-145 (prostate) cells = assay: MTT cytotoxicity assay, DU-145; type: cell-based; conditions: Homo sapiens, 48 h incubation (b12: 72 h), n = 3, read-out: IC50 ± SEM DU-145
Procedure: as §1, §2, §3

[1] = Half-wave potentials by cyclic voltammetry in acetonitrile; type: physicochemical; conditions: rt, Pt electrode, vs non-aqueous Ag/Ag+, given as negative of potential; for −E^I 1/2: first one-electron reduction, 0.1 M tetraethylammonium tetrafluoroborate; for −E^II 1/2: second one-electron reduction
Procedure: The members of the 3-acyl-2,5-bis(phenylamino)-1,4-benzoquinone series 2a–q were evaluated for their half-wave potentials (E^I 1/2 and E^II 1/2). They were measured by cyclic voltammetry in acetonitrile at room temperature, using a platinum electrode and 0.1 M tetraethylamoniumtetrafluoroborate as the supporting electrolyte. The voltammograms were run in the potential range from 0.0 to −2.0 V versus non-aqueous Ag/Ag^+.

HEK-293 kidney cells = assay: MTT cytotoxicity assay, HEK-293; type: cell-based; conditions: Homo sapiens, HEK293, non-tumor cells, 48 h incubation (b12: 72 h), n = 3, read-out: IC50 ± SEM HEK-293
Procedure: as §1, §2, §3

T24 and DU-145 cells = assay: MTT cytotoxicity assay, both cancer cell lines; type: cell-based; conditions: Homo sapiens; mean of T24 and DU-145 IC50
Procedure: as §1, §2, §3

[2] = test system: human colon adenocarcinoma; parameters: method as in PMID 3746824; conditions: cited from earlier work

−E^I 1/2 [1]	−E^II 1/2 [1]	SMILES	IC50 (T24 (bladder) cells; Homo sapiens)	IC50 (DU-145 (prostate) cells)	IC50 (HEK-293 kidney cells)	IC50 (T24 and DU-145 cells)	in vitro inhibitory activity against human colon adenocarcinoma proliferation [2]	IC50 (T24 (bladder) cells)
565 mV	1170 mV	CC(=O)C1=C(Nc2ccccc2)C(=O)C=C(Nc2ccccc2)C1=O [2a, 3-Acetyl-2,5-bis(phenylamino)-1,4-benzoquinone]	> 100 µM	96 ± 7.9 µM	> 100 µM	> 98 µM	–	–
570 mV	1150 mV	CCCC(=O)C1=C(Nc2ccccc2)C(=O)C=C(Nc2ccccc2)C1=O [2b, 3-Butiryl-2,5-bis(phenylamino)-1,4-benzoquinone]	> 100 µM	92.2 ± 8.7 µM	> 100 µM	> 96.1 µM	–	–
560 mV	1140 mV	COc1ccc(C(=O)C2=C(Nc3ccccc3)C(=O)C=C(Nc3ccccc3)C2=O)cc1OC [2e, 3-(3,4-Dimethoxybenzoyl)-2,5-bis(phenylamino)-1,4-benzoquinone]	58.2 ± 7.1 µM	47.7 ± 4.2 µM	> 100 µM	52.9 µM	–	–
560 mV	1120 mV	COc1cc(C(=O)C2=C(Nc3ccccc3)C(=O)C=C(Nc3ccccc3)C2=O)cc(OC)c1OC [2f, 3-(3,4,5-Trimethoxybenzoyl)-2,5-bis(phenylamino)-1,4-benzoquinone]	51.8 ± 6.2 µM	20.4 ± 2.1 µM	85.8 ± 0.9 µM	36.1 µM	–	–
570 mV	870 mV	O=C1C=C(Nc2ccccc2)C(=O)C(C(=O)c2ccco2)=C1Nc1ccccc1 [2g, 3-(Furan-2-carbonyl)-2,5-bis(phenylamino)-1,4-benzoquinone]	40.2 ± 4 µM	39.9 ± 3.6 µM	61.7 ± 4.2 µM	40 µM	–	–
500 mV	1030 mV	O=C1C=C(Nc2ccccc2)C(=O)C(C(=O)c2cccs2)=C1Nc1ccccc1 [2h, 3-(Thiophen-2-carbonyl)-2,5-bis(phenylamino)-1,4-benzoquinone]	75.6 ± 9.1 µM	80.9 ± 9.7 µM	> 100 µM	78.2 µM	–	–
800 mV	950 mV	COc1cc(NC2=CC(=O)C(Nc3cc(OC)c(OC)c(OC)c3)=C(C(=O)c3ccccc3)C2=O)cc(OC)c1OC [2i, 3-Benzoyl-2,5-bis-[(3,4,5-trimethoxyphenyl)amino]-1,4-benzoquinone]	> 100 µM	92.9 ± 1.4 µM	> 100 µM	> 96.4 µM	–	–
740 mV	950 mV	COc1ccc(C(=O)C2=C(Nc3cc(OC)c(OC)c(OC)c3)C(=O)C=C(Nc3cc(OC)c(OC)c(OC)c3)C2=O)cc1 [2j, 3-(4-Methoxybenzoyl)-2,5-bis-[(3,4,5-trimethoxyphenyl)amino]-1,4-benzoquinone]	85.3 ± 1.9 µM	72.4 ± 2.6 µM	56.9 ± 5.2 µM	78.8 µM	–	–
610 mV	1010 mV	COc1cc(C(=O)C2=C(Nc3cc(OC)c(OC)c(OC)c3)C(=O)C=C(Nc3cc(OC)c(OC)c(OC)c3)C2=O)ccc1O [2k, 3-(4-Hydroxy-3-methoxybenzoyl)-2,5-bis-[(3,4,5-trimethoxyphenyl)amino]-1,4-benzoquinone]	> 100 µM	45.9 ± 3.2 µM	28.3 ± 1.5 µM	> 72.9 µM	–	–
790 mV	930 mV	COc1cc(NC2=CC(=O)C(Nc3cc(OC)c(OC)c(OC)c3)=C(C(=O)c3ccco3)C2=O)cc(OC)c1OC [2l, 3-(Furan-2-carbonyl)-2,5-bis-[(3,4,5-trimethoxyphenyl)amino]-1,4-benzoquinone]	47.1 ± 2 µM	23 ± 2.3 µM	33 ± 4.8 µM	35 µM	–	–
850 mV	1010 mV	COc1cc(NC2=CC(=O)C(Nc3cc(OC)c(OC)c(OC)c3)=C(C(=O)c3cccs3)C2=O)cc(OC)c1OC [2m, 3-(Thiophen-2-carbonyl)-2,5-bis-[(3,4,5-trimethoxyphenyl)amino]-1,4-benzoquinone]	63.2 ± 0.6 µM	48.6 ± 3 µM	30.7 ± 3.1 µM	55.9 µM	–	–
560 mV	1040 mV	O=C1C=C(Nc2ccc(F)cc2)C(=O)C(C(=O)c2ccccc2)=C1Nc1ccc(F)cc1 [2n, 3-Benzoyl-2,5-bis-[(4-fluorophenyl)amino]-1,4-benzoquinone]	74.5 ± 2.2 µM	> 100 µM	> 100 µM	> 87.2 µM	–	–
550 mV	920 mV	COc1cc(C(=O)C2=C(Nc3ccc(F)cc3)C(=O)C=C(Nc3ccc(F)cc3)C2=O)ccc1O [2o, 3-(4-Hydroxy-3-methoxybenzoyl)-2,5-bis-[(4-fluorophenyl)amino]-1,4-benzoquinone]	> 100 µM	> 100 µM	> 100 µM	> 100 µM	–	–
680 mV	950 mV	O=C1C=C(Nc2ccc(F)cc2)C(=O)C(C(=O)c2ccco2)=C1Nc1ccc(F)cc1 [2p, 3-(Furan-2-carbonyl)-2,5-bis-[(4-fluorophenyl)amino]-1,4-benzoquinone]	> 100 µM	90 ± 6.4 µM	72.8 ± 7 µM	> 95 µM	–	–
730 mV	980 mV	O=C1C=C(Nc2ccc(F)cc2)C(=O)C(C(=O)c2cccs2)=C1Nc1ccc(F)cc1 [2q, 3-(Thiophen-2-carbonyl)-2,5-bis-[(4-fluorophenyl)amino]-1,4-benzoquinone]	> 100 µM	> 100 µM	> 100 µM	> 100 µM	–	–
710 mV	860 mV	COc1ccc(C(=O)C2=C(Nc3ccc(F)cc3)C(=O)C=C(Nc3ccc(F)cc3)C2=O)cc1 [2ñ, 3-(4-Methoxybenzoyl)-2,5-bis-[(4-fluorophenyl)amino]-1,4-benzoquinone]	> 100 µM	> 100 µM	> 100 µM	> 100 µM	–	–
–	–	O=C1C=C(Nc2ccccc2)C(=O)C=C1Nc1ccccc1 [A, 2,5-bis(phenylamino)benzoquinone]	–	–	–	–	good in vitro inhibitory activity	–
–	–	COc1cccc2c1C(=O)c1c(O)c3c(c(O)c1C2=O)C[C@@](O)(C(=O)CO)C[C@@H]3O[C@H]1C[C@H](N)[C@H](O)[C@H](C)O1 [DOX, Doxorubicin, reference compound]	0.43 µM	0.93 ± 0.06 µM	–	0.69 µM	–	0.46 ± 0.08 µM
